PubChem BioAssay AID2060612 (Molecular Pharmacology Branch, DTP, NCI, 2025)
Where “and” joins values, the source holds several entries; their conditions need not be identical. Equal entries are not always repeated.

System: 565232-114-T-J1-PDC complex spheroid viability
Test: Anticancer human tumor 565232-114-T-J1-PDC patient-derived bladder carcinoma cell line growth inhibition [CLK]
Details: for viability, T/C: stronger effect = lower value
Outline: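 Multi-cell-type spheroids combined patient-derived tumor cells with HUVEC endothelial cells and human mesenchymal stem cells. Paired agents were dosed in half-log steps down from about clinical Cmax, or from 10 microM where Cmax was unknown.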

[1] = curve of first compound, second compound 0.0316 µM
[2] = curve of first compound, second compound 0.1 µM
[3] = curve of first compound, second compound 0.316 µM
[4] = curve of first compound, second compound 1 µM
[5] = curve of first compound, second compound 3.16 µM
[6] = curve of first compound, second compound 10 µM
[7] = second compound 0.0316 µM, first compound 0.0316 µM
[8] = second compound 0.0316 µM, first compound 0.1 µM
[9] = second compound 0.0316 µM, first compound 0.316 µM
[10] = second compound 0.0316 µM, first compound 1 µM
[11] = second compound 0.0316 µM, first compound 3.16 µM
[12] = second compound 0.0316 µM, first compound 10 µM
[13] = second compound 0.1 µM, first compound 0.0316 µM
[14] = second compound 0.1 µM, first compound 0.1 µM
[15] = second compound 0.1 µM, first compound 0.316 µM
[16] = second compound 0.1 µM, first compound 1 µM
[17] = second compound 0.1 µM, first compound 3.16 µM
[18] = second compound 0.1 µM, first compound 10 µM
[19] = second compound 0.316 µM, first compound 0.0316 µM
[20] = second compound 0.316 µM, first compound 0.1 µM
[21] = second compound 0.316 µM, first compound 0.316 µM
[22] = second compound 0.316 µM, first compound 1 µM
[23] = second compound 0.316 µM, first compound 3.16 µM
[24] = second compound 0.316 µM, first compound 10 µM
[25] = second compound 1 µM, first compound 0.0316 µM
[26] = second compound 1 µM, first compound 0.1 µM
[27] = second compound 1 µM, first compound 0.316 µM
[28] = second compound 1 µM, first compound 1 µM
[29] = second compound 1 µM, first compound 3.16 µM
[30] = second compound 1 µM, first compound 10 µM
[31] = second compound 3.16 µM, first compound 0.0316 µM
[32] = second compound 3.16 µM, first compound 0.1 µM
[33] = second compound 3.16 µM, first compound 0.316 µM
[34] = second compound 3.16 µM, first compound 1 µM
[35] = second compound 3.16 µM, first compound 3.16 µM
[36] = second compound 3.16 µM, first compound 10 µM
[37] = second compound 10 µM, first compound 0.0316 µM
[38] = second compound 10 µM, first compound 0.1 µM
[39] = second compound 10 µM, first compound 0.316 µM
[40] = second compound 10 µM, first compound 1 µM
[41] = second compound 10 µM, first compound 3.16 µM
[42] = second compound 10 µM, first compound 10 µM
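Also: spheroids exposed to compounds for 7 days before readout.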
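For viability, T/C in this document: 100% = DMSO vehicle wells with luminescence normalized to vehicle control.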

## C#Cc1c(F)ccc2cc(O)cc(-c3ncc4c(N5CC6CCC(C5)N6)nc(OCC56CCCN5CC(F)C6)nc4c3F)c12 (stereo not given) + CN1CCN(c2cc(C(=O)Nc3cc4cc(-c5cnn(C)c5)ccc4cn3)ccn2)CC1
[1]
  IC50: > 10000 nM
[2]
  IC50: > 10000 nM
[3]
  IC50: < 31.6 nM
[4]
  IC50: < 31.6 nM
[5]
  IC50: < 31.6 nM
[6]
  IC50: < 31.6 nM
[7]
  viability, T/C: 104%
[8]
  viability, T/C: 75.3%
[9]
  viability, T/C: 106%
[10]
  viability, T/C: 113%
[11]
  viability, T/C: 93.2%
[12]
  viability, T/C: 101%
[13]
  viability, T/C: 96.8%
[14]
  viability, T/C: 76.8%
[15]
  viability, T/C: 102%
[16]
  viability, T/C: 86%
[17]
  viability, T/C: 101%
[18]
  viability, T/C: 107%
[19]
  viability, T/C: 25%
[20]
  viability, T/C: 29.1%
[21]
  viability, T/C: 26.9%
[22]
  viability, T/C: 28.1%
[23]
  viability, T/C: 21.8%
[24]
  viability, T/C: 21.1%
[25]
  viability, T/C: 0.26%
[26]
  viability, T/C: 0.25%
[27]
  viability, T/C: 0.72%
[28]
  viability, T/C: 0.3%
[29]
  viability, T/C: 1.23%
[30]
  viability, T/C: 0.75%
[31]
  viability, T/C: 0.23%
[32]
  viability, T/C: 3.14%
[33]
  viability, T/C: 0.23%
[34]
  viability, T/C: 0.18%
[35]
  viability, T/C: 2.07%
[36]
  viability, T/C: 0.17%
[37]
  viability, T/C: 0.21%
[38]
  viability, T/C: 1.2%
[39]
  viability, T/C: 2.26%
[40]
  viability, T/C: 0.7%
[41]
  viability, T/C: 3.78%
[42]
  viability, T/C: 0.83%

## NC(=O)C(=Cn1cnc(-c2cc(C(F)(F)F)cc(C(F)(F)F)c2)n1)c1cncnc1
Compound 0.00949 µM
  viability, T/C: 99% and 110%
Compound 0.03 µM
  viability, T/C: 99.6% and 106%
Compound 0.0949 µM
  viability, T/C: 111% and 105%
Compound 0.3 µM
  viability, T/C: 71.5% and 52.6%
Compound 0.949 µM
  viability, T/C: 6.85% and 2.59%
Compound 3 µM
  viability, T/C: 1.92% and 0.42%
Curve of compound
  IC50: 436 nM and 319 nM

## Nc1ccccc1NC(=O)c1ccc(CNC(=O)OCc2cccnc2)cc1 + CNC(=O)c1ccc(Nc2nc(OC3CCCC3)c3c(-c4ccc5nc(C)oc5c4)c[nH]c3n2)c(OC)c1
[1]
  IC50: 2980 nM
[2]
  IC50: 44.4 nM
[3]
  IC50: < 31.6 nM
[4]
  IC50: < 31.6 nM
[5]
  IC50: < 31.6 nM
[6]
  IC50: < 31.6 nM
[7]
  viability, T/C: 82%
[8]
  viability, T/C: 109%
[9]
  viability, T/C: 109%
[10]
  viability, T/C: 87.8%
[11]
  viability, T/C: 48.3%
[12]
  viability, T/C: 0.6%
[13]
  viability, T/C: 51%
[14]
  viability, T/C: 47.9%
[15]
  viability, T/C: 35%
[16]
  viability, T/C: 24.9%
[17]
  viability, T/C: 15.6%
[18]
  viability, T/C: 0.18%
[19]
  viability, T/C: 33.1%
[20]
  viability, T/C: 27.7%
[21]
  viability, T/C: 16.4%
[22]
  viability, T/C: 11.1%
[23]
  viability, T/C: 5.55%
[24]
  viability, T/C: 0.32%
[25]
  viability, T/C: 23.7%
[26]
  viability, T/C: 18.4%
[27]
  viability, T/C: 14.7%
[28]
  viability, T/C: 8.67%
[29]
  viability, T/C: 8.05%
[30]
  viability, T/C: 0.14%
[31]
  viability, T/C: 17.5%
[32]
  viability, T/C: 16.4%
[33]
  viability, T/C: 10.7%
[34]
  viability, T/C: 6.76%
[35]
  viability, T/C: 6.55%
[36]
  viability, T/C: 0.19%
[37]
  viability, T/C: 17.6%
[38]
  viability, T/C: 14.9%
[39]
  viability, T/C: 8.73%
[40]
  viability, T/C: 6.93%
[41]
  viability, T/C: 6.45%
[42]
  viability, T/C: 0.27%

## COc1c(OCCCN2CCOCC2)ccc2c3n(c(=NC(=O)c4cnc(N)nc4)nc12)CCN3
Compound 0.00316 µM
  viability, T/C: 97.1%
Compound 0.01 µM
  viability, T/C: 78.6%
Compound 0.0316 µM
  viability, T/C: 101%
Compound 0.1 µM
  viability, T/C: 103%
Compound 0.316 µM
  viability, T/C: 120%
Compound 1 µM
  viability, T/C: 66.1%
Curve of compound
  IC50: > 1000 nM

## CCc1c2c(nc3ccc(O)cc13)-c1cc3c(c(=O)n1C2)COC(=O)[C@]3(O)CC + CN1CCN(c2cc(C(=O)Nc3cc4cc(-c5cnn(C)c5)ccc4cn3)ccn2)CC1
[1]
  IC50: 36 nM
[2]
  IC50: 13.9 nM
[3]
  IC50: < 3.16 nM
[4]
  IC50: < 3.16 nM
[5]
  IC50: < 3.16 nM
[6]
  IC50: < 3.16 nM
Second compound 0.0316 µM, first compound 0.00316 µM
  viability, T/C: 96.6%
Second compound 0.0316 µM, first compound 0.01 µM
  viability, T/C: 61.8%
[7]
  viability, T/C: 54.6%
[8]
  viability, T/C: 38.5%
[9]
  viability, T/C: 16.3%
[10]
  viability, T/C: 5.15%
Second compound 0.1 µM, first compound 0.00316 µM
  viability, T/C: 113%
Second compound 0.1 µM, first compound 0.01 µM
  viability, T/C: 48.3%
[13]
  viability, T/C: 39.1%
[14]
  viability, T/C: 21.1%
[15]
  viability, T/C: 7.93%
[16]
  viability, T/C: 3.53%
Second compound 0.316 µM, first compound 0.00316 µM
  viability, T/C: 18.2%
Second compound 0.316 µM, first compound 0.01 µM
  viability, T/C: 17.8%
[19]
  viability, T/C: 13.5%
[20]
  viability, T/C: 5.02%
[21]
  viability, T/C: 1.56%
[22]
  viability, T/C: 2.33%
Second compound 1 µM, first compound 0.00316 µM
  viability, T/C: 0.86%
Second compound 1 µM, first compound 0.01 µM
  viability, T/C: 0.17%
[25]
  viability, T/C: 1.6%
[26]
  viability, T/C: 0.24%
[27]
  viability, T/C: 0.5%
[28]
  viability, T/C: 1.14%
Second compound 3.16 µM, first compound 0.00316 µM
  viability, T/C: 0.22%
Second compound 3.16 µM, first compound 0.01 µM
  viability, T/C: 1%
[31]
  viability, T/C: 0.2%
[32]
  viability, T/C: 0.12%
[33]
  viability, T/C: 1.33%
[34]
  viability, T/C: 2.74%
Second compound 10 µM, first compound 0.00316 µM
  viability, T/C: 0.22%
Second compound 10 µM, first compound 0.01 µM
  viability, T/C: 1.67%
[37]
  viability, T/C: 0.18%
[38]
  viability, T/C: 0.17%
[39]
  viability, T/C: 1.26%
[40]
  viability, T/C: 0.19%
